Key:
[1] = test system: exhaled nitric oxide / pulmonary function; conditions: cystic fibrosis patients, cited from earlier work
[2] = single oral dose; cystic fibrosis and healthy subjects; cited from earlier work
[3] = test system: isolated lungs of chronically hypoxic newborn pigs; conditions: perfusion of isolated lungs; cited from earlier work
exhaled nitric oxide = conditions: inhaled L-arginine; healthy and asthmatic subjects; cited from earlier work
[4] = inhalation of arginine solution; cystic fibrosis patients; cited from earlier work
[5] = Storage stability of ready to use formulation in LDPE vials; type: physicochemical; conditions: room temperature; LDPE vials covered with aluminum overwrap
Experimental: In alternative, the liquid form of the highly concentrated citrulline or another nitric oxide precursor may also be conveniently supplied as a ready to use formulation stored and supplied in 1 mL “Blow-fill-Seal” vial, made of plastic polyethylene material, such as low density polyethylene (LDPE). The selected material for such ready to use formulation prevents absorption of the active component onto the plastic walls of the vial, which is a common occurrence with other plastic materials. The 1 mL fill volume of the vial provides an exact amount of active component that is safe and efficacious for the patient convenience provided, of course, that the therapeutically effective amount of the active component can be supplied in 1 mL dilution. In the above described type of vials covered with an aluminum overwrap, citrulline or nitric oxide precursors for inhalation are stable for at least 9 months and 12 months, respectively, at room temperature. There is no loss of strength under these conditions. At accelerated conditions where the vials are exposed to a temperature of 40° C. and 75% relative humidity, all formulations for extended shelf-life will be shown to retain their full activity for at least 6 months and preferably or one year.

Compound | plasma amino acid concentration of L-arginine ([1]; after single inhalation) | FEV1 ([1]; single inhalation) | exhaled nitric oxide concentrations ([1]; single inhalation) | plasma L-arginine concentration [2] | nitric oxide production [3] | exhaled nitric oxide (exhaled nitric oxide) | time of maximum effect on exhaled nitric oxide (exhaled nitric oxide) [min] | adverse effects of inhalation therapy [4] | stability (shelf-life) [5]
N=C(N)NCCC[C@H](N)C(=O)O [L-arginine] | did not change significantly over time | sustained improvement of FEV1 | significantly increasing exhaled nitric oxide concentrations | significant increase of plasma L-arginine concentration | increase of nitric oxide production | increased exhaled nitric oxide in a dose-dependent fashion | 60 | cough, airway inflammation and severe deterioration of the patients general conditions | 
NC(=O)NCCC[C@H](N)C(=O)O [citrulline, L-(+)-2-amino-5-ureidovaleric acid] |  |  |  |  |  |  |  |  | at least 9 months
